Non-standard residues stand in square brackets, D forms with d. Residues, ends and D or L forms follow the SMILES beside them. NMeV = CN[C@H](C(=O)O)C(C)C; βAla = NCCC(=O)O
Experiments:
[1] = Pilot pharmacokinetics after intravenous and intraperitoneal injection; assay type: in vivo, hamster; details: hamsters, pilot study
Description: (§1) The cyclic integrin αv antagonist EMD121974 (cyclic Arg-Gly-Asp-D-Phe(N-methyl)Val) ([Dechantsreiter et al, 1999]) and the control peptide EMD135981 (cyclic Arg-β-Ala-Asp-D-Phe(N-methyl)Val) were synthesised and characterised at Merck KgAa (Darmstadt, Germany). In pilot studies pharmacokinetics of the peptides were compared after intravenous and intraperitoneal injection in hamsters. […] Therefore, we chose the following set-up for administration: Peptides were dissolved in PBS (10 mg ml^−1). One day after implantation of tumour cells, animals were randomly assigned to two groups (n=6) and RGD-peptide EMD121974 or control-peptide EMD135981 were given i.p. every 12 h (30 mg kg^−1 b.w.) until the end of the experiments.

[2] = Tolerability during treatment (side effects, body weight, behaviour); assay type: in vivo, Syrian Golden hamster; details: 30 mg kg^−1 i.p. twice a day
Description: Experiments were performed with male Syrian Golden Hamsters (6–8 weeks old, 50–60 g body weight (bw)) in accordance with institutional guidelines after approval of the animal committee of the Bavarian state. The animals were housed one per cage and had free access to tap water and standard laboratory food throughout the experiments. Animals were inspected at least two times a day by specialised animal colony staff to assure a normal clinical condition (including appearance, posture, behaviour and physiological responses). Particular attention was given to body weight and any signs of discomfort, ulceration or inflammation. All surgical procedures were performed under pentobarbital anaesthesia (50 mg kg^−1 b.w., i.p.; Nembutal, Sanofia-Leva, Hannover, Germany). The experiments met all the standards required by the UKCCCR guidelines for the welfare of animals in experimental neoplasia (United Kingdom Co-ordinating Committee on Cancer Research ([UKCCCR), 1998]).
(§2) The cyclic integrin αv antagonist EMD121974 (cyclic Arg-Gly-Asp-D-Phe(N-methyl)Val) ([Dechantsreiter et al, 1999]) and the control peptide EMD135981 (cyclic Arg-β-Ala-Asp-D-Phe(N-methyl)Val) were synthesised and characterised at Merck KgAa (Darmstadt, Germany). In pilot studies pharmacokinetics of the peptides were compared after intravenous and intraperitoneal injection in hamsters. […]

[3] = system: amelanotic hamster melanoma A-Mel-3; assay: Intravital fluorescence microscopy of tumour angiogenesis and microcirculation in the dorsal skinfold chamber; assay type: in vivo, Syrian Golden hamster; details: for Appearance of tumour vasculature: 3 days after tumour cell implantation, FITC-Dextran plasma marker; for Functional vessel density (FVD): 30 mg kg^−1 b.w. i.p. every 12 h from day 1, n=6, mean±s.e.m.; for Leucocyte–endothelium interaction in tumour microvessels: rhodamine 6G-stained leucocytes
Description: (§3) For quantification of tumour angiogenesis, a dorsal skinfold chamber preparation consisting of two symmetrical titanium frames was surgically implanted into the dorsal skin as described earlier in detail ([Asaishi et al, 1981]; [Endrich et al, 1982]). This is considered to cause the least distress upon the animal because the dorsal skin is extremely expansible. Following implantation of the transparent chamber and a recovery period of 48 h from anaesthesia and microsurgery, preparations fulfilling the criteria of an intact microcirculation were implanted with 2×10^5 cells of the amelanotic melanoma of the hamster A-Mel-3 ([Fortner et al, 1961]). Fine polyethylene catheters (PE10, inner diameter 0.28 mm) were permanently inserted into the right jugular vein 48 h before first measurement to allow injection of fluorescent agents for intravital fluorescence microscopy.
(§4) Quantification of tumour angiogenesis using intravital fluorescence microscopy have been described in detail elsewhere ([Asaishi et al, 1981]; [Dellian et al, 1995], [1996]). In brief, the awake animal was trained to crawl into a transparent plastic tube and was placed on a custom-made stage under a modified Leitz microscope (Orthoplan; Leitz, Munich, Germany). FITC-labelled dextran (Sigma, Deisenhofen, Germany; MW 500000; 0.05–0.1 ml of a 5% solution in 0.9% NaCl) as a plasma marker and rhodamine 6G (Molecular Probes, Eugene, OR, USA; 0.04 ml of a 0.05% solution in 0.9% NaCl) to label white blood cells in vivo, were injected i.v. to visualise microcirculation and leucocyte–endothelium interaction, respectively. […] Selective observation of FITC-labelled plasma was possible using epi-illumination with a 100 W mercury lamp attached to a Ploemopack illuminator with a Leitz I2/3 filter block (excitation 450–490 nm, emission ⩽515 nm) and rhodamine 6G-stained leucocytes were visualised using a Leitz N2 filter block (excitation 530–560 nm, emission ⩽580 nm). Intravital microscopy was performed 3, 5, 9 and 13 days after implantation of the tumour cells. At least 3–5 sites of interest per animal were randomly selected in centre and periphery of the tumour. Images were acquired by a SIT video camera (C2400-08; Hamamatsu Herrsching, Germany) and recorded on S-VHS video tape (Sony) for subsequent analysis. Parallel to microvascular observations the area covered by tumour in the chamber preparation was registered on videotape using a Leitz macroscope with video camera (XC-77; Sony) to evaluate tumour growth. The tumour area (mm^2) was quantified from videotape by digital image analysis.
Analysis of microcirculatory parameters was performed off-line from video tape by an image analysis system (Cap Image; Zeintl, Heidelberg, Germany). This system described in detail by [Zeintl et al (1989)] and [Klyscz et al (1997)] allows measurement of functional vessel density (FVD) as a parameter of angiogenic activity ([Dellian et al, 1996]). FVD is defined as the total length of perfused microvessels per unit area of observation and is given in cm^−1. Red blood cell velocity (vRBC) was quantified with the line shift diagram method according to [Klyscz et al (1997)] in mm s^−1. Rolling leucocytes were defined as population of cells temporarily interacting with the vessel wall and thus having a velocity at least 50% below vRBC in the same vessel. Adherent leucocytes were given as the number of leucocytes remaining stationary for at least 30 s per square millimetre of vessel wall surface ([Atherton and Born, 1972]; [Dellian et al, 1996]).
as §2

subcutaneous A-Mel-3 = assay: Growth and lymph node metastasis of subcutaneous A-Mel-3 tumours; assay type: in vivo, Syrian Golden hamster; details: for Subcutaneous tumour volume / growth pattern: calliper measurement every other day from day 5, 30 mg kg^−1 i.p. every 12 h
Description: Male Syrian Golden Hamsters (weight, age and housing as described above) were anaesthetised with pentobarbital and the dorsal skin was shaven and chemically depilated (Pilcamed, Schwarzkopf, Germany). Cells (4 to 6×10^6) of the A-Mel-3 were suspended in a 10 μl volume and injected s.c. over the lumbosacral region of the dorsal skin. This is considered to cause the least distress upon the animal because the dorsal skin is extremely expansible. Starting on day 5 after tumour cell implantation, the longer (l) and shorter (w) perpendicular axes and the height (h) of each tumour nodule were measured with callipers every other day. Metastases of the animals were determined by palpation of axillar and inguinal lymph nodes. The day when metastases were first palpable the animal was defined as metastasised. To minimise the pain and distress of the animals no biopsies were taken from the lymph nodes during the observation time. This was due to the known fact that the axillar or inguinal lymph nodes were the most frequent sites of metastasis formation ([Fortner et al, 1961]; [Weiss et al, 1990]). After the end of the experiments when animals were euthanised, biopsies were taken to confirm histologically the invasion of the lymph nodes. Tumour volume was calculated according to the formula Vt=0.837×l×w×h ([Weiss et al, 1990]).
as §1
Results are presented as mean±s.e.m. Data were evaluated using Wilcoxon–Mann–Whitney U and Kruskal–Wallis test, respectively (SigmaStat; Jandel Scientific, San Rafael, CA, USA). Metastasis analysis was performed according to the Kaplan–Meier method ([Kaplan and Meier, 1958]) and the differences were compared for statistical significance using the Cox-F test ([Lee, 1975], [1980]) with the statistical software program Statistica (StatSoft, Inc, 1997, Tulsa, OK, USA). P values smaller than 5% were considered to be significant.

[4] = system: amelanotic hamster melanoma A-Mel-3; assay: Tumour growth (tumour area) in the dorsal skinfold chamber by video macroscopy; assay type: in vivo, Syrian Golden hamster; details: 30 mg kg^−1 i.p. every 12 h; for Tumour area: n=6, mean±s.e.m.
Description: as §3, §4, §1

[5] = day 13 after tumour implantation

| Structure (SMILES) | half-life ([1]; Syrian Golden, hamster, plasma, ip, after intraperitoneal injection, read-out: Plasma half-life time) | Area under the curve, intraperitoneal versus intravenous administration [1] | Side effects in treated animals [2] | Body weight ([2]; control and treated animals) | Appearance of tumour vasculature [3] | Functional vessel density (FVD) ([3]; day 3 after tumour cell implantation) | Functional vessel density (FVD) [3, 5] | Red blood cell velocity (vRBC) versus control peptide ([3]; days 9 and 13, 30 mg kg^−1 i.p. every 12 h) | Vessel diameters, RGD peptide versus control peptide ([3]; intravital microscopy, 30 mg kg^−1 i.p. every 12 h) | Leucocyte–endothelium interaction in tumour microvessels ([3]; 30 mg kg^−1 i.p. every 12 h) | Subcutaneous tumour volume / growth pattern (subcutaneous A-Mel-3) | Effect on tumour growth of 30 mg kg^−1 every 12 h compared to 30 mg every 2 days (subcutaneous A-Mel-3; pilot study) | Tumour area ([4]; day 9) | Tumour area ([4]; day 13) | Tumour area versus controls ([4]; days 3 and 5) | Day on which FVD reached its maximum value ([3]; measurements on days 3, 5, 9 and 13, 30 mg kg^−1 i.p. every 12 h) | Day lymph node metastasis first palpable (subcutaneous A-Mel-3; in two animals of the group, palpation) | Palpable lymph node metastasis on day 11 (subcutaneous A-Mel-3; two days after day 9, palpation of axillar and inguinal lymph nodes) |
| --- | --- | --- | --- | --- | --- | --- | --- | --- | --- | --- | --- | --- | --- | --- | --- | --- | --- | --- |
| CC(C)[C@H]1C(=O)N[C@@H](CCCNC(=N)N)C(=O)NCC(=O)N[C@@H](CC(=O)O)C(=O)N[C@H](Cc2ccccc2)C(=O)N1C [EMD121974, cyclic Arg-Gly-Asp-D-Phe(N-methyl)Val] | 47 min | similar | no side effects were observed | increased similar in control and treated animals | only individual sprouts as signs of early angiogenesis were visible | 32.7 ± 12.1 cm⁻¹ | 156.9 ± 15.6 cm⁻¹ | slightly lower | no differences | almost absent | significantly smaller in comparison to controls on days 7 until 15 | slightly higher effect on tumour growth | 20.5±1.4 mm^2 | 49.1±4.8 mm^2 | slightly smaller than controls | – | – | – |
| CC(C)[C@H]1C(=O)N[C@@H](CCCNC(=N)N)C(=O)NCCC(=O)N[C@@H](CC(=O)O)C(=O)N[C@H](Cc2ccccc2)C(=O)N1C [EMD135981, cyclic Arg-β-Ala-Asp-D-Phe(N-methyl)Val, reference compound] (cyclo(D[dF][NMeV]R[βAla])) | – | – | – | – | dense, chaotic structured network | – | 108.2 ± 10.6 cm⁻¹ | – | – | almost absent | nearly exponential growth | – | 28.1±3.2 mm^2 | 80.94±6.1 mm^2 | – | 5 days | 9 days | palpable metastasis was found in all control animals |

From PMC2375318, “Inhibition of the alpha-ν integrins with a cyclic RGD peptide impairs angiogenesis, growth and metastasis of solid tumours in vivo” (British Journal of Cancer, 2002)
